Measured values as given in patent publication US8716355B2, “Hydroxylated tolans and related compounds in the treatment of a cancer” (Kent State University, priority 2007, dated 2014).
“And” between values parts separate entries of the source, which are not always exact repeats. Identical values can stand only once. Like-named read-outs stand apart in the source and are kept apart here.

Experiments:
[1] = test system: NCIH460; experiment: MTT cytotoxicity, NCIH460 lung; type: cell-based; settings: Homo sapiens, NCI-H460, 72 h; 3 Days; read-out: CD50 (μM) NCIH460
Description: (§1) Cell killing was evaluated using the colorimetric MTT assay. The assay measures the formation of a colored product from a chromogenic precursor, the tetrazole 3-[4,5-dimethylthiazol-2-yl]-2,5 diphenyltetrazolium bromide (MTT). The yellow MTT is reduced to purple formazan in the mitochondria of living cells. A solubilization solution (typically dimethyl sulfoxide or sodium dodecyl sulfate in dilute hydrochloric acid) is added to dissolve the insoluble purple formazan product into a colored solution. The absorbance of this colored solution is quantified by measuring at a certain wavelength (usually between 500 and 600 nm) by a spectrophotometer. The amount of purple formazan product generated is proportional to the number of viable cells (Mosmann, T., 1983, J. Immunol. Meth. 65:55-63; Wilson, A. P., Cytotoxicity and Viability Assays. In: Animal Cell Culture: A Practical Approach, 3rd ed. (Masters, J R W, ed.) Oxford University Press: Oxford, Vol. 1, pp. 175-219. 2000). This MTT assay is used widely to assess the cytotoxicity and selectivity of compounds such as anti-cancer drugs. The assay is suitable for rapid toxicity characterization of a test agent such as a drug formulation. […] A lower CD50 indicates a greater cytotoxic activity (as a lower amount of the agent is needed to achieve a fixed level of cytotoxicity). […]

[2] = test system: MeWo; experiment: MTT cytotoxicity, MeWo melanoma; type: cell-based; settings: Homo sapiens, 72 h, 3 Days, read-out: CD50 (μM) MeWo
Description: as §1

[3] = test system: T24; experiment: MTT cytotoxicity, T24 bladder cancer cells; type: cell-based, human
Description: (§2) As a first step, the antitumor activity of the tolans was assessed against a panel of three cancer cells lines that produce solid tumors upon implantation into animals. DU145 is an androgen-independent prostate cancer cells. T24 is a transitional cell bladder carcinoma cell. MDAH2274 (“MDAH) is an endometroid ovarian adenocarcinoma cell. To assess the selectivity of this antitumor activity, the toxicity of the tolans to normal human fibroblasts (MHRF) was examined.
as §1, with “The amount of purple formazan product generated is proportional to the number of viable cells (Mosmann, T., 1983, J. Immunol. Meth. 65:55-63; Wilson, A. P., Cytotoxicity and Viability Assays. In: Animal Cell Culture: A Practical Approach, 3rd ed. (Masters, J R W, ed.) Oxford University Press: Oxford, Vol. 1, pp. 175-219. 2000).” left out, “cytotoxicity). Two agents can be compared by examining the fold-increase or decrease in their CD50 values.” for “cytotoxicity).”

[4] = test system: MDAH2274; experiment: MTT cytotoxicity, MDAH2274 ovarian cancer cells; type: cell-based, human
Description: as §2
Cell killing was evaluated using the colorimetric MTT assay. The assay measures the formation of a colored product from a chromogenic precursor, the tetrazole 3-[4,5-dimethylthiazol-2-yl]-2,5 diphenyltetrazolium bromide (MTT). The yellow MTT is reduced to purple formazan in the mitochondria of living cells. A solubilization solution (typically dimethyl sulfoxide or sodium dodecyl sulfate in dilute hydrochloric acid) is added to dissolve the insoluble purple formazan product into a colored solution. The absorbance of this colored solution is quantified by measuring at a certain wavelength (usually between 500 and 600 nm) by a spectrophotometer. […] This MTT assay is used widely to assess the cytotoxicity and selectivity of compounds such as anti-cancer drugs. The assay is suitable for rapid toxicity characterization of a test agent such as a drug formulation. […] A lower CD50 indicates a greater cytotoxic activity (as a lower amount of the agent is needed to achieve a fixed level of cytotoxicity). Two agents can be compared by examining the fold-increase or decrease in their CD50 values.

[5] = test system: Mushroom tyrosinase; experiment: Inhibition of mushroom tyrosinase activity; type: biochemical; settings: concentration not given
Description: All chemical used for reagents were purchased from Sigma Chemical Company. KST201 at each tested concentration (1000, 250 and 100 μM) was dissolved in 10% ethanol from a master mixture of the drug prepared at 0.1M in 100% ethanol.
Mushroom tyrosinase (Sigma) was diluted in 50 mM phosphate buffer, pH 6.5 to yield a concentration of 16 U/μl. […] A master mix containing 0.5 mM L-DOPA [3,4-dihydroxy-1-phenylalanine], 10 mM Sodium L-tyrosine in 50 mM phosphate buffer, pH 6.5 was prepared. The KST-201 dilutions were preincubated with the enzyme for 20 minutes. The samples were pipetted into 24 well plates and the master mixture added quickly. The reaction was read using a kinetic format in which wells were read every 30 seconds over a course of 10 minutes at a wavelength of 475 nm using a Synergy HT Plate reader. A kinetic curve was generated for each sample compared to a total reaction with mushroom tyrosinase without a drug (total).

[6] = MTT, 1 day incubation, read-out: CD50 against T24, compound tested individually
[7] = Homo sapiens, 24 h, MTT, 1 day incubation, read-out: CD50 against MDAH, compound tested individually
[8] = Homo sapiens, 48 h, MTT, 2 days incubation, read-out: CD50 against MDAH, compound tested individually
[9] = Homo sapiens, 72 h, MTT, 3 days incubation, read-out: CD50 against MDAH, compound tested individually
[10] = MTT, 1 day incubation, read-out: CD50 against MDAH, compound tested individually

**Q.** Which IC50 [1] does the source give for `Oc1ccc(C#Cc2ccc(O)cc2)cc1` [KST-201, 4,4′-dihydroxytolan] here?
**A.** 42 ± 2 µM

**Q.** What about the IC50 [2] of the same molecule?
**A.** 156 ± 2.5 µM

**Q.** And the “Fold more potent in killing T24 cells vs. control MHRF fibroblasts” value [3]?
**A.** 18 fold

**Q.** What about the IC50 ([3]; Homo sapiens, T-24, 24 h, VC:KST-201 200:1, 1 day, read-out: CD50 (μM) of each Compound tested in combination, T24) of the same molecule?
**A.** 3.19 µM

**Q.** What about the IC50 ([3]; Homo sapiens, T-24, 48 h, VC:KST-201 200:1, 2 days, read-out: CD50 (μM) of each Compound tested in combination, T24) of the same molecule?
**A.** 3.17 µM

**Q.** And the IC50 ([3]; Homo sapiens, T-24, 72 h, MTT, 3 days incubation, read-out: CD50 against T24)?
**A.** 8.5 µM

**Q.** And the IC50 [3, 6]?
**A.** 83 µM and 82.6 µM

**Q.** What about the IC50 ([3]; MTT, 2 days incubation, read-out: CD50 against T24, compound tested individually) of the same molecule?
**A.** 31.1 ± 0.81 µM

**Q.** What about the “Fold more toxic to T24 bladder cancer cells than resveratrol” value ([3]; Table 15 vs Table 14) of the same molecule?
**A.** 2.8 fold

**Q.** And the “Increase of cytotoxic potency when given together, T24” value ([3]; VC:KST-201 200:1)?
**A.** about 7 fold

**Q.** And the “Fold more potent in killing MDAH2274 cells vs. control MHRF fibroblasts” value [4]?
**A.** 50 fold

**Q.** And the IC50 [4, 7]?
**A.** 22 µM

**Q.** What about the IC50 ([4]; Homo sapiens, 24 h, VC:KST-201 400:1, 1 day, read-out: CD50 (μM) of each Compound tested in combination, MDAH 2274) of the same molecule?
**A.** 1.16 µM

**Q.** What about the IC50 [4, 8] of the same molecule?
**A.** 10.5 ± 2.7 µM

**Q.** What about the IC50 ([4]; Homo sapiens, 48 h, VC:KST-201 400:1, 2 days, read-out: CD50 (μM) of each Compound tested in combination, MDAH 2274) of the same molecule?
**A.** 0.97 ± 0.02 µM

**Q.** And the IC50 [4, 9]?
**A.** 3.1 µM

**Q.** What about the IC50 ([4]; Homo sapiens, 72 h, VC:KST-201 400:1, 3 days, read-out: CD50 (μM) of each Compound tested in combination, MDAH 2274) of the same molecule?
**A.** 0.98 µM

**Q.** And the IC50 ([4]; MTT, 1 day incubation, listed as Hydroxytolan, read-out: CD50 against MDAH, compound tested individually)?
**A.** 21.5 ± 7.4 µM

**Q.** What about the IC50 ([4]; MTT, 1 day incubation, listed as hydroxytolan, read-out: CD50 against MDAH, compound tested individually) of the same molecule?
**A.** 21.5 µM

**Q.** What about the IC50 [4, 10] of the same molecule?
**A.** 21.5 ± 7.35 µM

**Q.** What about the “Fold more toxic to MDAH 2274 ovarian cancer cells than resveratrol” value ([4]; Table 15 vs Table 14) of the same molecule?
**A.** 4.7 fold

**Q.** What about the “Increase of cytotoxic potency in the combination, MDAH 2274” value ([4]; VC:KST-201 400:1, 1 day) of the same molecule?
**A.** about 20 fold

**Q.** And the “% inhibition of mushroom tyrosinase activity” value [5]?
**A.** 59.2±13%

**Q.** What does the source list for `Oc1ccc(/C=C/c2cc(O)cc(O)c2)cc1` [Resveratrol, 3,5,4′-trihydroxy-trans-stilbene, reference compound]?
**A.** IC50 [1]: 43 ± 20 µM; IC50 [2]: 185 ± 3.7 µM; IC50 ([3]; Homo sapiens, T-24, 24 h, MTT, 1 day incubation, read-out: CD50 against T24, compound tested individually): 36 µM; IC50 ([3]; Homo sapiens, T-24, 48 h, MTT, 2 days incubation, read-out: CD50 against T24, compound tested individually): 29.1 ± 0.05 µM; IC50 [3, 6]: 35.7 ± 1 µM; IC50 ([3]; MTT, 3 days incubation, listed as resveratrol, read-out: CD50 against T24): 23 µM; IC50 ([3]; MTT, 3 days incubation, read-out: CD50 against T24): 22.6 ± 0.25 µM; IC50 [4, 7]: 37 µM; IC50 [4, 8]: 23.1 ± 0.14 µM; IC50 [4, 9]: 15 µM; IC50 [4, 10]: 36.9 ± 2.45 µM; IC50 ([4]; MTT, 3 days incubation, read-out: CD50 against MDAH, compound tested individually): 14.6 ± 0.12 µM; % inhibition of mushroom tyrosinase activity [5]: 59.9±7.4%
